Experimental data reported in patent US20110183942A1, “Methods and Compositions for Treating Alzheimer's Disease” (UNIVERSITY OF MEDICINE AND DENTISTRY OF NEW JERSEY, priority 2008, published 2011).

Molecular target: T1, eEF2 kinase (Homo sapiens, UniProt O00418)
T1 construct: made in house; host or cells: E. coli
Test: HTS screen for eEF2 kinase inhibitors (ATP depletion coupled to luciferase luminescence, eEF2p substrate)
Assay type: biochemical

identified as inhibitor for eEF2 kinase: inhibitors for eEF2 kinase
Compound: CCCCCCCCCCCCCCCCN1C=CN(c2ccccc2)C1 [L-207]
